From article PMC9884089 (Journal of Medicinal Chemistry, 2023) come the findings set out here.

Usually IC50 stands for the concentration at which inhibition is half-maximal. As a reminder, the solubility is the dissolved amount per volume that the medium holds.

Series [1] deals with T1, PARP16 (Homo sapiens, UniProt Q8N5Y8).
T1 construct: dockerin domain of Hungateiclostridium thermocellum Cel48s (C); made in house; host or cells: Escherichia coli
T1 sequence (Q8N5Y8 1-322): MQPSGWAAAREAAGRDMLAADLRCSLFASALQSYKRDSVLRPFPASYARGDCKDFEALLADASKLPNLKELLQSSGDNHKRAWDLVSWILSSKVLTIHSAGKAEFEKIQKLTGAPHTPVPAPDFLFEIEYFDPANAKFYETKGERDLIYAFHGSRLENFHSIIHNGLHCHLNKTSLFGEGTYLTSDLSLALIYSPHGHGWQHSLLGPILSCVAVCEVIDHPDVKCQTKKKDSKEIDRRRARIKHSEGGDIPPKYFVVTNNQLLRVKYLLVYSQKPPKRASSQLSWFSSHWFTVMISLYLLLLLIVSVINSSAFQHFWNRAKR
Nature of the series: Proximity-enhanced mono-ART activity assay, PARP16. The format is biochemical. As to conditions: > less than 50% inhibition. Here is the method: We therefore had to improve the assay method and developed a homogeneous proximity enhanced assay for mono-ARTs.[47]
The proteins used in Tables 1–3 were produced as described earlier. Dockerin constructs to allow enhanced activity assays for mono-ARTs (Table 4) were produced in Escherichia coli with an N-terminal maltose binding protein (MBP) and a C-terminal dockerin domain from Hungateiclostridium thermocellum Cel48s as described recently.[47]
(§1) Inhibition experiments were performed using a homogenous assay measuring NAD+ consumption.[80]−[82] Reactions were carried out in quadruplicate, and IC50 curves were fitted using sigmoidal dose response curve (four variables) in GraphPad Prism version 8.02. […] Assay conditions for PARP2, TNKS2, PARP10, and PARP15 (Tables 1–3) were recently reported.[44] The conditions for the proximity-enhanced mono-ART assays (Table 4) were also reported recently.[47] PARP6 (400 nM) inhibition was measured using the standard buffer (50 mM sodium phosphate pH 7.0) for the enhanced activity assay using 500 nM NAD^+ and 18 h incubation in r.t..

Series [2] is described as follows: Thermodynamic water solubility. The format is physicochemical. As to conditions: distilled water, r.t. The protocol: Each solid compound (1 mg) was added to 1 mL of distilled water. Each sample was mixed at r.t. in a shaker water bath 24 h. The resulting suspension was filtered through a 0.45 μm nylon filter (Acrodisc), and the solubilized compound was quantified in triplicate using UV/LC–MS method reported above by comparison with the appropriate calibration curve that was obtained from samples of the compound dissolved in methanol at different concentrations.[94]

Series [3] deals with T2, TNKS1 (Homo sapiens, UniProt O95271).
T2 sequence (O95271 1-1327): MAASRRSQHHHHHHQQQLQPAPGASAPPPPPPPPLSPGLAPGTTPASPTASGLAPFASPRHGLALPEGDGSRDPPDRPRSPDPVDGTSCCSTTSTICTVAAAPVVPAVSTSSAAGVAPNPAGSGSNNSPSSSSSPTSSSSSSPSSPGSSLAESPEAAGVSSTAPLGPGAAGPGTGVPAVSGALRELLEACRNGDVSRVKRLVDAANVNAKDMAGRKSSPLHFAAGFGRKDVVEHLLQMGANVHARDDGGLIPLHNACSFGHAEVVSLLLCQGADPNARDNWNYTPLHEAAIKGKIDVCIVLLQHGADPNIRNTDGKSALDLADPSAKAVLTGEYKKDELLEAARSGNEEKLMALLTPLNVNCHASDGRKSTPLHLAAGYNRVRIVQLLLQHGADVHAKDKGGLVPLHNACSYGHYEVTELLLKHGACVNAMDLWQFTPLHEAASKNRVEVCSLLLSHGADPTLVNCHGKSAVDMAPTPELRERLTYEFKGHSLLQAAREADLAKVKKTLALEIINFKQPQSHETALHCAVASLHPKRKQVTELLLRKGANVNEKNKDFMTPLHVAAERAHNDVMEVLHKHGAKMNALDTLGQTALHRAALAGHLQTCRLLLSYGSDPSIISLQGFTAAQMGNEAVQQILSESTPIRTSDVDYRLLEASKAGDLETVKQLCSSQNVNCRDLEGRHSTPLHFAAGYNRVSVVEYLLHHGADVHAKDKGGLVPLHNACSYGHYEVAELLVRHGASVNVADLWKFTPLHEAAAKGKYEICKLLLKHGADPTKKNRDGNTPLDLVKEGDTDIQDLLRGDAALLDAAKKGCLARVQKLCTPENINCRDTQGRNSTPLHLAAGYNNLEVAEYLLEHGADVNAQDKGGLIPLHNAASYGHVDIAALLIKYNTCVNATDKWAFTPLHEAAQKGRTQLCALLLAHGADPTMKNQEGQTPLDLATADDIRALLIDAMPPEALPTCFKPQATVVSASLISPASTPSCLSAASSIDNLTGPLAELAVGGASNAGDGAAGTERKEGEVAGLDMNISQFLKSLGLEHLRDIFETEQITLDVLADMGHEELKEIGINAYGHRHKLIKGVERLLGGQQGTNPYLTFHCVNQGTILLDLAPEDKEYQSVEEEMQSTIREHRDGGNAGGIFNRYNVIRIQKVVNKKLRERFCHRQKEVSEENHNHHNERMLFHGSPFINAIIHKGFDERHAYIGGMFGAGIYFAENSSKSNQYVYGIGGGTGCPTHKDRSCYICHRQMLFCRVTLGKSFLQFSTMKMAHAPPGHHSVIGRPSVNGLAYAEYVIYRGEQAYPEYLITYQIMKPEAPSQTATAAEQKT
Briefly: PARP profiling activity assay, TNKS1. The format is biochemical.

The nature of series [4]: Metabolic stability in HLM. As to conditions: 37 °C, 1 h, NADPH regenerating system. The protocol: Each compound in DMSO solution was incubated at 37 °C for 1 h in phosphate buffer (25 mM pH 7.4), human liver microsomal protein (0.2 mg/mL), and in the presence of an NADPH regenerating system (NADPH 0.2 mM, […] 1 mM, D-glucose-6-phosphate 4 mM, 4 unit/mL glucose-6-phosphate dehydrogenase) in 48 mM MgCl2 at a final volume of 500 μL. The reaction was stopped by cooling in ice and quenched by adding 1.0 mL of acetonitrile. The reaction mixtures were then centrifuged (4000 rpm for 10 min), and the supernatant was taken, dried under nitrogen flow, and suspended in 100 μL of methanol. The parent drug and metabolites were subsequently determined by UV/LC–MS. The percentage of not metabolized compound was calculated by comparison with reference solutions. For each compound, the determination was performed in three independent experiments.

In series [5] the target is T3, Human PARP6 (Homo sapiens, UniProt Q2NL67).
T3 construct: Human PARP6 (Uniprot #Q2NL67-1) was cloned into a modified pFASTBac1 vector; 6× His-MBP with TEV protease site (N, cleaved yes); made in house; host or cells: Sf21 insect cells (baculovirus)
Nature of the series: PARP6 inhibition assay (400 nM PARP6, 500 nM NAD+, 18 h). The format is biochemical. As to conditions: ≫ no inhibition at the concentration; > less than 50% inhibition. Here is the method: as §1

[6] abbreviates: read-out: water solubility (log s) (converted).

Each structure is given as a SMILES string. Where two headings read alike, the source gives them in different places.

T3 sequence (Q2NL67 whole entry): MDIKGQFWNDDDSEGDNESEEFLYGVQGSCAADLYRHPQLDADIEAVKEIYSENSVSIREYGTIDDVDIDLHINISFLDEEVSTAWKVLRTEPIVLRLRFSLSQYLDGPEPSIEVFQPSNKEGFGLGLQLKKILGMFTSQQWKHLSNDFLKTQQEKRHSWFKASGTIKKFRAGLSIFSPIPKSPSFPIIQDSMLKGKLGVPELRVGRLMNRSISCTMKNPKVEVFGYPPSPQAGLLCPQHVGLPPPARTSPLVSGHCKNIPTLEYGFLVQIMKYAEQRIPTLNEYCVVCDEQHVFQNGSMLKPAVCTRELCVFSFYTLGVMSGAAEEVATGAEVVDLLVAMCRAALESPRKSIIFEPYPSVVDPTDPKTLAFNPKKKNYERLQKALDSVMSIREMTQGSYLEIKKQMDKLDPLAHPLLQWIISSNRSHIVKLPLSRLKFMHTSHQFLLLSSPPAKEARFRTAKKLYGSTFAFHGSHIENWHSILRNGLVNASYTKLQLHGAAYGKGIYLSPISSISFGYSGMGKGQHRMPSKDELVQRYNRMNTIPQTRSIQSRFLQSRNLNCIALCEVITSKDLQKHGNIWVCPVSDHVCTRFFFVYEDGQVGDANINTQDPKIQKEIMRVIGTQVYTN

For `Cc1ccc2c(c1)sc1nnc(N)n12` [Compound 21, 7-Methyl[1,2,4]triazolo[3,4-b][1,3]benzothiazol-3-amine], the IC50 is 5.2 µM in series [1], 2.1 µM in series [3] and greater than 10 µM in series [5]. Besides, the solubility at 24 h in series [2] (read-out: water solubility) is 37.6 µg/mL; in series [2] (setting [6]), 184 µM. Also, in series [4], the “metabolic stablity % (unchanged compound)” value is 99.14%.

For `COc1ccc(OC)c2c1sc1nnc(N)n12` [Compound 27, 5,8-Dimethoxy[1,2,4]triazolo[3,4-b][1,3]benzothiazol-3-amine], the concentration for half-maximal inhibition (IC50) in series [1] was 3.4 µM; in series [3], 5.4 µM; in series [5] it was 7.7 µM. The solubility at 24 h is 12.6 µg/mL in series [2] (read-out: water solubility) and 50.4 µM in series [2] (setting [6]). Besides, the “metabolic stablity % (unchanged compound)” value in series [4] was determined as 99.11%.
